pEC50: −log10 of the molar value.
Tests used:
[1] = target: T1, human E3 ligase component cereblon (CRBN) (Homo sapiens, UniProt Q96SW2); test: Cereblon (CRBN) target engagement, NanoBRET TE Intracellular E3 Ligase Assay in transfected HEK-293T cells; conditions: read-out: CRBN Binding EC50
T1 construct: host or cells: HEK293T
How it was run: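 HEK-293T cells transiently co-transfected with NanoLuc-CRBN (N-terminal NanoLuc) and DDB1 were dosed with CRBN tracer and an 11-point compound series (typically 10 μM to 100 pM) for 2 h at 37° C. BRET at 450/610 nm gave IC50 by four-parameter logistic fit.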

IKZF2 (Helios) [2] = target: T2, IKZF2 (Helios) (Homo sapiens, UniProt Q96SW2+Q9UKS7); test: IKZF2 reporter degradation assay (HEK 293T IKZF2-mNeonGreen reporter cell line); format: cell-based; conditions: @ 1 μM, HEK 293T IKZF2-mNeonGreen reporter, 24 hours incubation; for inhibition at 1 µM: HEK-293T, 24 h
T2 construct: Leu-Asp junction (codons ctcgac before the linker); mScarlet (behind P2A) (C, cleaved yes); expressed in transfected cells
T2 sequence (Q9UKS7 whole entry): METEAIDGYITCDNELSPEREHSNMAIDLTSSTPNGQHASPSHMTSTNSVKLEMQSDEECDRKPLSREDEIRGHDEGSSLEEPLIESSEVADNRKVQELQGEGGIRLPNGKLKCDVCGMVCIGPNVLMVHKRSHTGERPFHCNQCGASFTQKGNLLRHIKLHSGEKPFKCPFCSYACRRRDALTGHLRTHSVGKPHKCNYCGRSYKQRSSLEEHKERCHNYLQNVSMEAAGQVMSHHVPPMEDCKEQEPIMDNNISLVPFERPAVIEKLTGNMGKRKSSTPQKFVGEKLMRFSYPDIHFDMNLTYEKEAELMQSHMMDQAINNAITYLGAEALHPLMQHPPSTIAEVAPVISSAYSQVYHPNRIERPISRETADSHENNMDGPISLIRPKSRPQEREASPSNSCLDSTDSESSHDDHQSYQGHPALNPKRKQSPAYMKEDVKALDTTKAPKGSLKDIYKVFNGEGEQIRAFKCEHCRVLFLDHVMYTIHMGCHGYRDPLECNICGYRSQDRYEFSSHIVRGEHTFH
T2 sequence (Q96SW2 whole entry): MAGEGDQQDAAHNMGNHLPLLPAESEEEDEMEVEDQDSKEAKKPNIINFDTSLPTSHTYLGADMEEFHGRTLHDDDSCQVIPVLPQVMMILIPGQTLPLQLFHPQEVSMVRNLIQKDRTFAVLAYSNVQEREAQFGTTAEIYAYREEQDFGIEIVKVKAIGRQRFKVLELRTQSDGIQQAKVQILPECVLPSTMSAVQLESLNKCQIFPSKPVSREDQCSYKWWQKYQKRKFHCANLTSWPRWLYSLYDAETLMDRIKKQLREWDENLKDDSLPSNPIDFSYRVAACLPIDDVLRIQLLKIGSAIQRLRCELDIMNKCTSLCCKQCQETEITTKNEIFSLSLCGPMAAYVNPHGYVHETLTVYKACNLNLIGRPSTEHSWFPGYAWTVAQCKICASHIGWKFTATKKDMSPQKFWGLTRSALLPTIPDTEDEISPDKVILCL
T2 sequence (Q16531 whole entry partner): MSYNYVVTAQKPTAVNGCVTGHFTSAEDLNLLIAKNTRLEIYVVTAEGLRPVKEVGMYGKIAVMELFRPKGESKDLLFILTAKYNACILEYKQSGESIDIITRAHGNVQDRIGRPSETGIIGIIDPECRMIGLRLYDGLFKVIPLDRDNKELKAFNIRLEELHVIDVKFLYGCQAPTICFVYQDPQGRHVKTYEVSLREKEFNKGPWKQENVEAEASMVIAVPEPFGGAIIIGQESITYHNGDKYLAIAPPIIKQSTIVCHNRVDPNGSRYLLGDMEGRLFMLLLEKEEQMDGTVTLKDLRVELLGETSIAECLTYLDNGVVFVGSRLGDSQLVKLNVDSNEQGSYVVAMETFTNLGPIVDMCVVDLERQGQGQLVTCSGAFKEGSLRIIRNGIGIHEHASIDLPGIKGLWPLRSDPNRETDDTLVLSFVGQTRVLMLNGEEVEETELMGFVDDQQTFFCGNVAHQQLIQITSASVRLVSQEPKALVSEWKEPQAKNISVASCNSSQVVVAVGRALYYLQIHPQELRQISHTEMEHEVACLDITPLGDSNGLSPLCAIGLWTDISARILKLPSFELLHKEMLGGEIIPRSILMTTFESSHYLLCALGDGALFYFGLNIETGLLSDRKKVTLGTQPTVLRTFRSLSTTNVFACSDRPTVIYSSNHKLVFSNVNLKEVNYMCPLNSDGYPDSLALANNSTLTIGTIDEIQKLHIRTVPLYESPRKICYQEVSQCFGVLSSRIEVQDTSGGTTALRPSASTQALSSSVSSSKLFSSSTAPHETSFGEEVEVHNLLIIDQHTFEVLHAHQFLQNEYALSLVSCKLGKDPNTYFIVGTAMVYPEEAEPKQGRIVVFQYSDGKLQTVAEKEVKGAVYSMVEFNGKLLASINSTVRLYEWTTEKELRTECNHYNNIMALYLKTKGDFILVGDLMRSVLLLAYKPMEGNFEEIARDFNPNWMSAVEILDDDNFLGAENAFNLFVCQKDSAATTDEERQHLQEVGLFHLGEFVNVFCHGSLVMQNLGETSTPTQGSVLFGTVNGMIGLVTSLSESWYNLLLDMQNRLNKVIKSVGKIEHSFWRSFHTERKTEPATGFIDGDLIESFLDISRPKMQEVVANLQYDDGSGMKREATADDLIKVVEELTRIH
How it was run: (§1)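 HEK 293T, stable IKZF1/2/3-mNeonGreen + P2A-mScarlet; cpd 24 h, 37 °C, max 0.5% DMSO, n=4 wells; FITC/TRITC imaging, % positive; DC50 by 4PL fit.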

IKZF2 (Helios) [3] = target: T3, IKZF2 (Helios) (Homo sapiens, UniProt Q9UKS7); test: as above; format: cell-based; conditions: HEK 293T IKZF2-mNeonGreen reporter, 24 hours incubation
T3 construct: Leu-Asp junction (codons ctcgac before the linker); mScarlet (behind P2A) (C, cleaved yes); expressed in transfected cells
T3 sequence (Q9UKS7 whole entry): as the sequence (Q9UKS7 whole entry) above
T3 sequence (Q96SW2 whole entry, further chain): as the sequence (Q96SW2 whole entry) above
T3 sequence (Q16531 whole entry partner): as the sequence (Q16531 whole entry partner) above
How it was run: as §1

IKZF3 (Aiolos) = target: T4, IKZF3 (Aiolos) (Homo sapiens, UniProt Q9UKT9); test: IKZF3 reporter degradation assay (HEK 293T IKZF3-mNeonGreen reporter cell line); format: cell-based; conditions: HEK 293T IKZF3-mNeonGreen reporter, 24 hours incubation; for inhibition at 1 µM: HEK-293T, 24 h
T4 construct: Leu-Asp junction (codons ctcgac before the linker); mScarlet (behind P2A) (C, cleaved yes); expressed in transfected cells
T4 sequence (Q96SW2 whole entry partner): as the sequence (Q96SW2 whole entry) above
T4 sequence (Q16531 whole entry partner): as the sequence (Q16531 whole entry partner) above
T4 sequence (Q9UKT9 whole entry): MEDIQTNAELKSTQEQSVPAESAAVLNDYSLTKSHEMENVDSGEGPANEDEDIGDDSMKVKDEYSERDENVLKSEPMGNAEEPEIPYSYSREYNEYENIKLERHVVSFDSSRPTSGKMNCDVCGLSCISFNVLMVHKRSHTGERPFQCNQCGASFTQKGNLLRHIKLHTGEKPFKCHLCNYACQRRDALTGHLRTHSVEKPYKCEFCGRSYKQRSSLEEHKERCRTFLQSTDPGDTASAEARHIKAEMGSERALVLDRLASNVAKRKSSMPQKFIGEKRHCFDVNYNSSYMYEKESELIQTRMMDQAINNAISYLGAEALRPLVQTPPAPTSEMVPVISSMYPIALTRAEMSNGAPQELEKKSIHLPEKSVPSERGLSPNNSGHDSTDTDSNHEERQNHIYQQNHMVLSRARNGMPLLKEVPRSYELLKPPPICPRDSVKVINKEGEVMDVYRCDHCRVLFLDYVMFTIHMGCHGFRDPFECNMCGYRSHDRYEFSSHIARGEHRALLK
From the text: Polycistronic plasmids were constructed for the mammalian expression of fluorescent reporter fusions of human transcription factors IKZF1 (Ikaros), IKZF2 (Helios), and IKZF3 (Aiolos). The respective protein sequences had their C-terminal end joined to a GGGGS linker repeated three times followed by mNeonGreen, P2A sequence, and mScarlet. The DNA sequences of the open reading frames are as follows:
IKZF1, IKZF2, and IKZF3 constructs were cloned into the UCOE Hygromycin expression vectors (Millipore Sigma). Reporter constructs were transfected using cationic lipid reagents into adherent HEK 293T cells and stable integrants were selected by treatment with 200 μg/mL hygromycin B. Clonal populations were obtained from the population of stable integrants either by limiting dilution or fluorescence activated cell sorting.
The clonal stable cell lines were maintained under constant 200 μg/mL hygromycin B selection while being passaged for use in the degradation assays. […] The fluorescence intensity of the IKZF1/2/3-mNeonGreen (FITC channel) and mScarlet (PE channel) reporters were routinely analyzed by flow cytometry to confirm consistent expression levels between experiments.
The IKZF1/IKZF2/IKZF3 degradation assays were carried out by harvesting the HEK 293T reporter cell lines and resuspending the cells in media formulated for reduced background fluorescence (FluoroBrite; Thermo Fisher). The respective cell lines were seeded at a density of 4000 cells/well into black-walled 384-well optical grade assay tissue culture plates. The cells were incubated overnight at 37° C. to allow for attachment to the assay plate. Dilutions of the compounds were prepared in DMSO from 10 mM compound stocks. The assay plates were treated with appropriate concentrations of the compounds by dispensing the DMSO dilutions in quadruplicate wells with an upper limit of 0.5% final DMSO.
After 24 hours incubation with the compounds, the assay plates were imaged on an ImageXpress Pico microscopy system (cells maintained at 37° C. during imaging) to obtain the fluorescent readouts. The assay plates were imaged in the FITC and Tetramethylrhodamine (TRITC) channels to obtain the mNeonGreen fluorescence intensity (reporter degradation data) and mScarlet fluorescence intensity (for cell segmentation). 293T-IKZF1 and 293T-IKZF3 reporter cell lines were imaged with exposures of 500 milliseconds (ms) for both FITC and TRITC channels, while the 293T-IKZF2 reporter cell line was imaged with exposures of 1000 ms for FITC and 1250 ms for TRITC. The resulting data was analyzed with Cell Reporter Xpress software using the 2-channel cell scoring analysis with a “percent positive” readout. The TRITC channel was selected for the “nuclei” segmentation with a threshold of 20 while the FITC channel was selected for the “Marker 1” segmentation and a threshold of 100 for the IKZF1 and IKZF3 reporter lines. […] The minimum segmentation width was set to 6 micrometers and the maximum segmentation width was set to 15 micrometers for all cell lines. The DC50 calculations were determined by regression to best fit four-parameter logistic curves using GraphPad Prism.

T1 sequence (Q96SW2 whole entry): as the sequence (Q96SW2 whole entry) above
T1 sequence (Q16531 whole entry partner): as the sequence (Q16531 whole entry partner) above

## O=C1CCC(N2Cc3cc(O[C@H]4CCCC[C@@H]4N4CC(c5ccc(Cl)cn5)C4)ccc3C2=O)C(=O)N1 (single isomer, unassigned) [Compound 100-B]
[1]
  pEC50: 7.70
IKZF2 (Helios) [2]
  IKZF2 % Degradation @ 1 μM: 80.5%
IKZF2 (Helios) [3]
  DC50: 5 nM
IKZF3 (Aiolos)
  DC50: > 30 µM

## O=C1CCC(N2Cc3cc(OC4CCCC4N4CC(c5ccc(C(F)(F)F)cn5)C4)ccc3C2=O)C(=O)N1 (centres unmarked) [Compound 147-B, 3-(1-oxo-5-((2-(3-(5-(trifluoromethyl)pyridin-2-yl)azetidin-1-yl)cyclopentyl)oxy)isoindolin-2-yl)piperidine-2,6-dione]
[1]
  pEC50: 7.66
IKZF2 (Helios) [2]
  inhibition at 1 µM: 28.6%
IKZF2 (Helios) [3]
  DC50: 130 nM
IKZF3 (Aiolos)
  DC50: > 30 µM

## O=C1CCC(N2Cc3cc(O[C@H]4CCCC[C@@H]4N4CC(c5ccc6ccccc6n5)C4)ccc3C2=O)C(=O)N1 (mixture of isomers) [Compound 152-B, Rac-3-(1-oxo-5-(((trans)-2-(3-(quinolin-2-yl)azetidin-1-yl)cyclohexyl)oxy)isoindolin-2-yl)piperidine-2,6-dione]
[1]
  pEC50: 8.52
IKZF2 (Helios) [2]
  inhibition at 1 µM: 43.9%
IKZF2 (Helios) [3]
  DC50: 41 nM
IKZF3 (Aiolos)
  DC50: > 30 µM

## O=C1CCC(N2Cc3cc(O[C@H]4CCCC[C@@H]4N4CC(c5ccc(C(F)(F)F)nc5)C4)ccc3C2=O)C(=O)N1 (single isomer, unassigned) [Compound 126-B]
[1]
  pEC50: 8.15
IKZF2 (Helios) [2]
  inhibition at 1 µM: 94.8%
IKZF2 (Helios) [3]
  DC50: 6 nM
IKZF3 (Aiolos)
  DC50: 0.0866 µM
IKZF3 (Aiolos); @ 1 μM
  inhibition at 1 µM: 39.5%

## O=C1CCC(N2Cc3cc(O[C@@H]4CCCC[C@@H]4N4CC(c5cncc(Cl)c5)C4)ccc3C2=O)C(=O)N1 (mixture of isomers) [Compound 155-B, Rac-3-(5-(((cis)-2-(3-(5-chloropyridin-3-yl)azetidin-1-yl)cyclohexyl)oxy)-1-oxoisoindolin-2-yl)piperidine-2,6-dione]
[1]
  pEC50: 7.74
IKZF2 (Helios) [2]
  inhibition at 1 µM: 75.5%
IKZF2 (Helios) [3]
  DC50: 11 nM
IKZF3 (Aiolos)
  DC50: > 30 µM

## O=C1CCC(N2Cc3cc(O[C@@H]4CCCC[C@H]4N4CC(c5ccc(C(F)(F)F)cn5)C4)ccc3C2=O)C(=O)N1 (single isomer, unassigned) [Compound 128-B]
[1]
  pEC50: 7.96
IKZF2 (Helios) [2]
  inhibition at 1 µM: 24.2%
IKZF2 (Helios) [3]
  DC50: 18 nM
IKZF3 (Aiolos)
  DC50: > 30 µM

## O=C1CCC(N2Cc3cc(OC4CCCCC4N4CC(c5ccnnc5)C4)ccc3C2=O)C(=O)N1 (centres unmarked) [Compound 143-B, 3-(1-oxo-5-((2-(3-(pyridazin-4-yl)azetidin-1-yl)cyclohexyl)oxy)isoindolin-2-yl)piperidine-2,6-dione]
[1]
  pEC50: 6.61
IKZF2 (Helios) [2]
  inhibition at 1 µM: 20.4%
IKZF2 (Helios) [3]
  DC50: 581 nM
IKZF3 (Aiolos)
  DC50: > 30 µM

## O=C1CCC(N2Cc3cc(O[C@H]4CCCC[C@@H]4N4CC(c5ccc(C(F)(F)F)cn5)C4)ccc3C2=O)C(=O)N1 (single isomer, unassigned) [Compound 131-B]
[1]
  pEC50: 7.68
IKZF2 (Helios) [2]
  IKZF2 % Degradation @ 1 μM: 94.1%
IKZF2 (Helios) [3]
  DC50: 5 nM
IKZF3 (Aiolos); @ 1 μM
  IKZF3 % Degradation @ 1 μM: 34.3%
IKZF3 (Aiolos)
  DC50: 0.0414 µM

## CC(=O)N1CCC(C2CN([C@H]3CCCC[C@@H]3Oc3ccc4c(c3)CN(C3CCC(=O)NC3=O)C4=O)C2)CC1 (stereo partly drawn) [Compound 12-A, 3-(5-(((1S,2S)-2-(3-(1-acetylpiperidin-4-yl)azetidin-1-yl)cyclohexyl)oxy)-1-oxoisoindolin-2-yl)piperidine-2,6-dione]
[1]
  pEC50: 7.28
IKZF2 (Helios) [2]
  inhibition at 1 µM: 83.1%
IKZF2 (Helios) [3]
  DC50: 12 nM
IKZF3 (Aiolos)
  DC50: > 30 µM

## O=C1CCC(N2Cc3cc(O[C@H]4CCCC[C@@H]4N4CC(c5ccc6ccccc6n5)C4)ccc3C2=O)C(=O)N1 (single isomer, unassigned) [Compound 89-B]
[1]
  pEC50: 8.52
IKZF2 (Helios) [2]
  inhibition at 1 µM: 86.2%
IKZF2 (Helios) [3]
  DC50: 2 nM
IKZF3 (Aiolos)
  DC50: > 30 µM

## CN(C)C(=O)C1CCN(c2ccc(CN3CCC(O)(c4ccc5c(c4)CN(C4CCC(=O)NC4=O)C5=O)CC3)cc2)CC1 (centres unmarked) [Compound 41-A, 1-(4-((4-(2-(2,6-dioxopiperidin-3-yl)-1-oxoisoindolin-5-yl)-4-hydroxypiperidin-1-yl)methyl)phenyl)-N,N-dimethylpiperidine-4-carboxamide]
[1]
  pEC50: 6.21
IKZF2 (Helios) [2]
  inhibition at 1 µM: 37.4%
IKZF2 (Helios) [3]
  DC50: 482 nM
IKZF3 (Aiolos)
  DC50: 0.456 µM
IKZF3 (Aiolos); @ 1 μM
  inhibition at 1 µM: 18.1%

## CC(C)(C)OC(=O)N1CCC(C2CN([C@H]3CCCC[C@@H]3Oc3ccc4c(c3)CN(C3CCC(=O)NC3=O)C4=O)C2)CC1 (stereo partly drawn) [Compound 26-A, tert-butyl 4-(1-((1S,2S)-2-((2-(2,6-dioxopiperidin-3-yl)-1-oxoisoindolin-5-yl)oxy)cyclohexyl)azetidin-3-yl)piperidine-1-carboxylate]
[1]
  pEC50: 9.00
IKZF2 (Helios) [2]
  inhibition at 1 µM: 74.7%
IKZF2 (Helios) [3]
  DC50: 1 nM
IKZF3 (Aiolos)
  DC50: > 30 µM

## O=C1CCC(N2Cc3cc(O[C@H]4CCCC[C@@H]4N4CC(C5CCN(C6CCC6)CC5)C4)ccc3C2=O)C(=O)N1 (stereo partly drawn) [Compound 56-A, 3-(5-(((1S,2S)-2-(3-(1-cyclobutylpiperidin-4-yl)azetidin-1-yl)cyclohexyl)oxy)-1-oxoisoindolin-2-yl)piperidine-2,6-dione]
[1]
  pEC50: 7.30
IKZF2 (Helios) [2]
  inhibition at 1 µM: 60.8%
IKZF2 (Helios) [3]
  DC50: 30 nM
IKZF3 (Aiolos)
  DC50: > 30 µM

## O=C1CCC(N2Cc3cc(O[C@H]4CCCC[C@@H]4N4CC(c5ccc(Cl)cn5)C4)ccc3C2=O)C(=O)N1 (single isomer, unassigned) [Compound 99-B]
[1]
  pEC50: 8.40
IKZF2 (Helios) [2]
  inhibition at 1 µM: 81.3%
IKZF2 (Helios) [3]
  DC50: 6 nM
IKZF3 (Aiolos)
  DC50: > 30 µM

## O=C1CCC(N2Cc3cc(O[C@@H]4CCCC[C@@H]4N4CC(c5ccc6ccccc6n5)C4)ccc3C2=O)C(=O)N1 (single isomer, unassigned) [Compound 91-B]
[1]
  pEC50: 8.30
IKZF2 (Helios) [2]
  inhibition at 1 µM: 47.3%
IKZF2 (Helios) [3]
  DC50: 29 nM
IKZF3 (Aiolos)
  DC50: > 30 µM

## O=C1CCC(N2Cc3cc(O[C@H]4CCCC[C@@H]4N4CC(c5ncc(Br)cn5)C4)ccc3C2=O)C(=O)N1 (mixture of isomers) [Compound 137-B, Rac-3-(5-(((trans)-2-(3-(5-bromopyrimidin-2-yl)azetidin-1-yl)cyclohexyl)oxy)-1-oxoisoindolin-2-yl)piperidine-2,6-dione]
[1]
  pEC50: 7.42
IKZF2 (Helios) [2]
  inhibition at 1 µM: 59.3%
IKZF2 (Helios) [3]
  DC50: 49 nM
IKZF3 (Aiolos)
  DC50: > 30 µM

## O=C1CCC(N2Cc3cc(O[C@H]4CCCC[C@@H]4N4CC(c5ccncc5F)C4)ccc3C2=O)C(=O)N1 (single isomer, unassigned) [Compound 103-B]
[1]
  pEC50: 7.23
IKZF2 (Helios) [2]
  IKZF2 % Degradation @ 1 μM: 69.9%
IKZF2 (Helios) [3]
  DC50: 18 nM
IKZF3 (Aiolos)
  DC50: > 30 µM

## O=C1CCC(N2Cc3cc(O[C@H]4CCCC[C@@H]4N4CC(C5CCN(C(=O)c6ccccc6)CC5)C4)ccc3C2=O)C(=O)N1 (stereo partly drawn) [Compound 24-A, 3-(5-{[(1S,2S)-2-[3-(1-benzoylpiperidin-4-yl)azetidin-1-yl]cyclohexyl]oxy}-1-oxo-2,3-dihydro-1H-isoindol-2-yl)piperidine-2,6-dione]
[1]
  pEC50: 7.89
IKZF2 (Helios) [2]
  inhibition at 1 µM: 76.7%
IKZF2 (Helios) [3]
  DC50: 6 nM
IKZF3 (Aiolos)
  DC50: > 30 µM

## O=C1CCC(N2Cc3cc(O[C@H]4CCCC[C@@H]4N4CC(c5ccncc5F)C4)ccc3C2=O)C(=O)N1 (single isomer, unassigned) [Compound 102-B]
[1]
  pEC50: 7.82
IKZF2 (Helios) [2]
  inhibition at 1 µM: 71.1%
IKZF2 (Helios) [3]
  DC50: 10 nM
IKZF3 (Aiolos)
  DC50: > 30 µM

## O=C1CCC(N2Cc3cc(O[C@H]4CCCC[C@@H]4N4CC(c5ncc(C6CC6)cn5)C4)ccc3C2=O)C(=O)N1 (single isomer, unassigned) [Compound 134-B]
[1]
  pEC50: 8.30
IKZF2 (Helios) [2]
  inhibition at 1 µM: 70.4%
IKZF2 (Helios) [3]
  DC50: 5 nM
IKZF3 (Aiolos)
  DC50: > 30 µM
